Measurements as given in paper PMC5015106 (Scientific Reports, 2016).
≈ marks a conversion by molar mass, not a printed value. Numbered stars: 1 amine (or outer) side, 2 acyl side, 3 side chain; on linkers, the order of the positions; unused ones are H or OH. Bridge positions count the residues as written; N and C are the ends. Square brackets hold non-standard residues; d marks the D form. Peptide text beside a SMILES is read from it. ξ: configuration not given here. X1 = O=C([C@H](CCc1ccc(O)c(Cl)c1)N[*:1])[*:2]; NMehTyr = CN[C@@H](CCc1ccc(O)cc1)C(=O)O; Nle(6-Ph) = N[C@@H](CCCCc1ccccc1)C(=O)O; d(aIle) = CC[C@H](C)[C@@H](N)C(=O)O; hTyr = N[C@@H](CCc1ccc(O)cc1)C(=O)O; hhPhe = N[C@@H](CCCc1ccccc1)C(=O)O; aIle = CC[C@@H](C)[C@H](N)C(=O)O; hPhe = N[C@@H](CCc1ccccc1)C(=O)O; Ile(3ξ) = CCC(C)[C@H](N)C(=O)O; NMeN = CN[C@@H](CC(N)=O)C(=O)O; NMeS = CN[C@@H](CO)C(=O)O; NMeA = CN[C@@H](C)C(=O)O; CO = O=C([*:1])[*:2]; Sar = CNCC(=O)O

Target: FXa (Homo sapiens, UniProt P00742)
Sequence (P00742 235-488 limits assumed): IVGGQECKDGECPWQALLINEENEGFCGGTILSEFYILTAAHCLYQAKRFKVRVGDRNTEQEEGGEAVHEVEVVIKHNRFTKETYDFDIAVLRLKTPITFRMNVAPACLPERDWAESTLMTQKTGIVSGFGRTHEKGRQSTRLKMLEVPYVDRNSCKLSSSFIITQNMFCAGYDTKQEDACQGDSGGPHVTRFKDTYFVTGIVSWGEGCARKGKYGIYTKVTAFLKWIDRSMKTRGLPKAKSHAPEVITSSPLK
Sequence (P00742 41-179 partner limits assumed): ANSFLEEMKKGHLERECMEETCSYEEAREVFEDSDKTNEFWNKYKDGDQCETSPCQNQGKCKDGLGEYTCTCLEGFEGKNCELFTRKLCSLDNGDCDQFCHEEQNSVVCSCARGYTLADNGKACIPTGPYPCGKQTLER
Test: Protease/carboxypeptidase panel: FXa
Format: biochemical
Conditions: not given
Source text: Supplement srep32958-s1.docx, table 1: Table S1: Activities of Anabaenopeptins against a panel of proteases/carboxypeptidases. | column: FXa
In the case of CC[C@H](C)[C@@H]1NC(=O)[C@H](NC(=O)N[C@@H](CCCNC(=N)N)C(=O)O)CCCCNC(=O)[C@H](Cc2ccccc2)NC(=O)[C@H](C)N(C)C(=O)[C@H](CCc2ccc(O)cc2)NC1=O [Compound 3, Anabaenopeptin F] ({Arg-CO}-[dK]I[hTyr][NMeA]F; lactam 1-C), the Ki is reported as 38000 nM.

Target: FIIa (Homo sapiens, UniProt P00734)
Test: Protease/carboxypeptidase panel: FIIa
Format: biochemical
Conditions: read-out: Ki FIIa
Source text: Supplement srep32958-s1.docx, table 1: Table S1: Activities of Anabaenopeptins against a panel of proteases/carboxypeptidases. | column: FIIa
Molecule CC[C@H](C)[C@@H]1NC(=O)[C@H](NC(=O)N[C@@H](CCCNC(=N)N)C(=O)O)CCCCNC(=O)[C@H](Cc2ccccc2)NC(=O)[C@H](C)N(C)C(=O)[C@H](CCc2ccc(O)cc2)NC1=O [Compound 3, Anabaenopeptin F] ({Arg-CO}-[dK]I[hTyr][NMeA]F; lactam 1-C) has a Ki of 350 nM.

Target: T1, TAFIa (Homo sapiens, UniProt Q96IY4)
T1 construct: purchased American Diagnostica Pr; No. 874
T1 sequence (Q96IY4 115-423): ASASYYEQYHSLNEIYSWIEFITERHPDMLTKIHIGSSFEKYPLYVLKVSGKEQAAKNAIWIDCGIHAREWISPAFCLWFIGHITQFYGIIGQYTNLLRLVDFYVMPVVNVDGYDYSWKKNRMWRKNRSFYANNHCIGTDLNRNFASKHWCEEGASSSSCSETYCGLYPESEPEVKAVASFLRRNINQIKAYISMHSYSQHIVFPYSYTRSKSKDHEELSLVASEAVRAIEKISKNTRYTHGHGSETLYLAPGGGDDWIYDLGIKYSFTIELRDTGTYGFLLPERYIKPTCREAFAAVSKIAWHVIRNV
Test: biochemical
Conditions: not given
CCC(C)[C@@H]1NC(=O)[C@H](NC(=O)N[C@@H](CCCCN)C(=O)O)CCCCNC(=O)[C@H](Cc2ccccc2)NC(=O)[C@H](CC(N)=O)N(C)C(=O)[C@H](CCCc2ccccc2)NC1=O (stereo partly drawn) [Compound 4, Anabaenopeptin SA4] ({Lys-CO}-[dK][Ile(3ξ)][hhPhe][NMeN]F; lactam 1-C) showed an IC50 of 3.4 nM.
Work on CC[C@H](C)[C@@H]1NC(=O)[C@H](CCc2ccc(O)cc2)N(C)C(=O)[C@H](CCc2ccc(O)cc2)NC(=O)[C@H](C(C)C)NC(=O)[C@H](NC(=O)N[C@@H](Cc2ccc(O)cc2)C(=O)O)CCCCNC1=O [Compound 15, Anabaenopeptine 915] ({Tyr-CO}-[dK]V[hTyr][NMehTyr]I; lactam 1-C) yielded an IC50 of 530 nM.
CC[C@H](C)[C@@H]1NC(=O)[C@H](CCc2ccc(O)cc2)N(C)C(=O)[C@H](CCc2ccc(O)cc2)NC(=O)[C@H](C(C)C)NC(=O)[C@H](NC(=O)N[C@@H](CCCNC(=N)N)C(=O)O)CCCCNC1=O [Compound 16, Anabaenopeptin 908] ({Arg-CO}-[dK]V[hTyr][NMehTyr]I; lactam 1-C) gave an IC50 of 1.8 nM.

Same assay, conditions: enzymatic inhibition assay, duplicate determination; read-out: IC50 in nM against TAFIa
CC[C@@H](C)[C@H](NC(=O)N[C@@H]1CCCCNC(=O)[C@H](Cc2ccccc2)NC(=O)[C@H](CC(N)=O)N(C)C(=O)[C@H](CCCCc2ccccc2)NC(=O)[C@@H]([C@@H](C)CC)NC1=O)C(=O)O [Compound 8, Anabaenopeptin SA8] ({aIle-CO}-[dK][d(aIle)][Nle(6-Ph)][NMeN]F; lactam 1-C) gave an IC50 of 4800 nM.
CC[C@@H](C)C1NC(=O)[C@H](NC(=O)N[C@@H](Cc2ccccc2)C(=O)O)CCCCNC(=O)[C@H](CCc2ccccc2)NC(=O)CN(C)C(=O)[C@H](CCc2ccc(O)c(Cl)c2)NC1=O (stereo partly drawn) [Compound 9, Anabaenopeptin SA9] gave an IC50 of 31000 nM.
CC(C)[C@H]1NC(=O)[C@H](NC(=O)N[C@@H](Cc2ccccc2)C(=O)O)CCCCNC(=O)[C@H](CCc2ccc(O)c(Cl)c2)NC(=O)CN(C)C(=O)[C@H](CCc2ccc(O)cc2)NC1=O [Compound 10, Anabaenopeptin SA10] ({Phe-CO}-[dK][dV][hTyr][Sar][X1]; lactam 1-C) showed an IC50 of 7000 nM.
For CC[C@@H](C)C1NC(=O)[C@H](NC(=O)N[C@@H](Cc2ccccc2)C(=O)O)CCCCNC(=O)[C@H](CCc2ccc(O)c(Cl)c2)NC(=O)CN(C)C(=O)[C@H](CCc2ccc(O)cc2)NC1=O (stereo partly drawn) [Compound 11, Anabaenopeptin SA11], the IC50 was 15000 nM.
CC(C)[C@@H]1NC(=O)[C@H](NC(=O)N[C@@H](Cc2ccc(O)cc2)C(=O)O)CCCCNC(=O)[C@H](Cc2ccccc2)NC(=O)[C@H](C)N(C)C(=O)[C@H](CCc2ccc(O)cc2)NC1=O [Compound 13, Anabaenopeptin A] ({Tyr-CO}-[dK]V[hTyr][NMeA]F; lactam 1-C) showed an IC50 of 440 nM.
Molecule CC[C@H](C)[C@H]1NC(=O)[C@H](NC(=O)N[C@@H](CCCCN)C(=O)O)CCCCNC(=O)[C@H](Cc2ccccc2)NC(=O)[C@H](C)N(C)C(=O)[C@H](CCc2ccc(O)cc2)NC1=O [Compound 17, Anabaenopeptin SA3] ({Lys-CO}-[dK][d(aIle)][hTyr][NMeA]F; lactam 1-C) has an IC50 of 2.1 nM.
Work on CC[C@@H](C)[C@H](NC(=O)N[C@@H]1CCCCNC(=O)[C@H](Cc2ccccc2)NC(=O)[C@H](CC(N)=O)N(C)C(=O)[C@H](CCc2ccccc2)NC(=O)[C@H]([C@H](C)CC)NC1=O)C(=O)O [Compound 18, Anabaenopeptin SA6] ({aIle-CO}-[dK][aIle][hPhe][NMeN]F; lactam 1-C) yielded an IC50 of 51000 nM.
Molecule CC(C)[C@H]1NC(=O)[C@H](NC(=O)N[C@@H](CCCN=C(N)N)C(=O)O)CCCCNC(=O)[C@H](Cc2ccccc2)NC(=O)[C@H](CO)N(C)C(=O)[C@H](CCc2ccc(O)cc2)NC1=O [Compound 19, Anabaenopeptin SA2] ({Arg-CO}-[dK][dV][hTyr][NMeS]F; lactam 1-C) has an IC50 of 16 nM.
Work on CC(C)[C@H]1NC(=O)[C@H](NC(=O)N[C@@H](Cc2ccc(O)cc2)C(=O)O)CCCCNC(=O)[C@H](Cc2ccccc2)NC(=O)[C@H](CO)N(C)C(=O)[C@H](CCc2ccc(O)cc2)NC1=O [Compound 20, Anabaenopeptin SA13] ({Tyr-CO}-[dK][dV][hTyr][NMeS]F; lactam 1-C) yielded an IC50 of 2500 nM.
Anabaenopeptin SA1 [Compound 5] gave an IC50 of 2.2 nM.
Molecule Anabaenopeptin SA5 [Compound 6] has an IC50 of 790 nM.
Molecule Anabaenopeptin SA7 [Compound 7] has an IC50 of 13000 nM.
Molecule Anabaenopeptin SA12 [Compound 12] has an IC50 of 4300 nM.

Target: carboxypeptidase A
Test: not given
Conditions: cited from earlier work
In the case of CC[C@H](C)[C@@H]1NC(=O)[C@H](NC(=O)N[C@@H](CCCNC(=N)N)C(=O)O)CCCCNC(=O)[C@H]([C@@H](C)CC)NC(=O)[C@H](CCc2ccc(O)cc2)N(C)C(=O)[C@H](CCc2ccc(O)cc2)NC1=O [anabaenopeptin H] ({Arg-CO}-[dK]I[hTyr][NMehTyr]I; lactam 1-C), the “IC50 carboxypeptidase A” value is given as 3.4 µg/mL (≈ 3.68 µM).

Same assay, conditions: in words; cited from earlier work
In the case of CC[C@H](C)[C@@H]1NC(=O)[C@H](NC(=O)N[C@@H](Cc2ccc(O)cc2)C(=O)O)CCCCNC(=O)[C@H]([C@@H](C)CC)NC(=O)[C@H](CCc2ccc(O)cc2)N(C)C(=O)[C@H](CCc2ccc(O)cc2)NC1=O [anabaenopeptin G] ({Tyr-CO}-[dK]I[hTyr][NMehTyr]I; lactam 1-C), the “inhibitory concentrations carboxypeptidase A” value is given as “nanomolar”.
In the case of CC[C@H](C)[C@H](NC(=O)N[C@@H]1CCCCNC(=O)[C@H](CC(C)C)NC(=O)[C@H](C)N(C)C(=O)[C@H](CCc2ccc(O)cc2)NC(=O)[C@H](C(C)C)NC1=O)C(=O)O [anabaenopeptin I] ({Ile-CO}-[dK]V[hTyr][NMeA]L; lactam 1-C), the “inhibitory concentrations carboxypeptidase A” value is given as “nanomolar”.
For CC[C@H](C)[C@H](NC(=O)N[C@@H]1CCCCNC(=O)[C@H](Cc2ccccc2)NC(=O)[C@H](C)N(C)C(=O)[C@H](CCc2ccc(O)cc2)NC(=O)[C@H](C(C)C)NC1=O)C(=O)O [anabaenopeptin J] ({Ile-CO}-[dK]V[hTyr][NMeA]F; lactam 1-C), the “inhibitory concentrations carboxypeptidase A” value is listed as “nanomolar”.

Target: T2, CPA (Homo sapiens, UniProt P15085)
T2 sequence (P15085 111-419): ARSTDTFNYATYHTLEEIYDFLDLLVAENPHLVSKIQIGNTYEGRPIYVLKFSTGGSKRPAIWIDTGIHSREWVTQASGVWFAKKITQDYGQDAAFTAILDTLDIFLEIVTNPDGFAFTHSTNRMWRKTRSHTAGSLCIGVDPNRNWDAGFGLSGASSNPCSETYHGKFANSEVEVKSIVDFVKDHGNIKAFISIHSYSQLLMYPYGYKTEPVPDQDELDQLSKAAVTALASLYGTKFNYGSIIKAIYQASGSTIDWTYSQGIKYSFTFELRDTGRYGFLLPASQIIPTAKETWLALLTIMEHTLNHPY
Test: Protease/carboxypeptidase panel: CPA
Format: biochemical
Conditions: not given
Source text: Supplement srep32958-s1.docx, table 1: Table S1: Activities of Anabaenopeptins against a panel of proteases/carboxypeptidases. | column: CPA
In the case of CC[C@H](C)[C@@H]1NC(=O)[C@H](NC(=O)N[C@@H](CCCNC(=N)N)C(=O)O)CCCCNC(=O)[C@H](Cc2ccccc2)NC(=O)[C@H](C)N(C)C(=O)[C@H](CCc2ccc(O)cc2)NC1=O [Compound 3, Anabaenopeptin F] ({Arg-CO}-[dK]I[hTyr][NMeA]F; lactam 1-C), the IC50 is reported as 1100 nM.

Target: T3, CPN (Homo sapiens, UniProt P15169)
T3 sequence (P15169 21-458): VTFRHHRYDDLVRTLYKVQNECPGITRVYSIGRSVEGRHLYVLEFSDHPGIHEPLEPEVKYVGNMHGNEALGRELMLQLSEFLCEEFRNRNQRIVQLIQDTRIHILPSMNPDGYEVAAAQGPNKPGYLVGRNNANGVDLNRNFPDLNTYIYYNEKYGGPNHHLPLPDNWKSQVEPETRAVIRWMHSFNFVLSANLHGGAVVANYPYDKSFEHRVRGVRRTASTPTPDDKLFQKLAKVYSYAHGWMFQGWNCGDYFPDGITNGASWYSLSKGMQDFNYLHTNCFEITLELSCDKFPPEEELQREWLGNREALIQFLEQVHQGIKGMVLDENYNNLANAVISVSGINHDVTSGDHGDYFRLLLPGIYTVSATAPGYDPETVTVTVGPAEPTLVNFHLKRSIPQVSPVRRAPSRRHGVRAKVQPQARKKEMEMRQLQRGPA
T3 sequence (P22792 22-545 partner): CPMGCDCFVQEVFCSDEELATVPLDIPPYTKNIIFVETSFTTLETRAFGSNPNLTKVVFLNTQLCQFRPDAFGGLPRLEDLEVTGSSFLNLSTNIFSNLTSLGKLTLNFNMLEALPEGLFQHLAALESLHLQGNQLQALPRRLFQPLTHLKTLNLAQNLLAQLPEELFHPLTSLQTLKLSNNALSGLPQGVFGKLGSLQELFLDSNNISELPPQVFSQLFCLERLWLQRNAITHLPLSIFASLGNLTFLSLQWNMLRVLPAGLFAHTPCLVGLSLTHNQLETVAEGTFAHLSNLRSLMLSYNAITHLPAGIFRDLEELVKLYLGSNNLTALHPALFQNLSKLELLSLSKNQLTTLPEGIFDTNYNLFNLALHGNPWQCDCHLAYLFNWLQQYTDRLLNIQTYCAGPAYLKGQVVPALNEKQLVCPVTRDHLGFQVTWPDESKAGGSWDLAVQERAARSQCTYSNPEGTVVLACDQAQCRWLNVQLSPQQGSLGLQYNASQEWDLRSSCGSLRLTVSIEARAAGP
Test: Protease/carboxypeptidase panel: CPN
Format: biochemical
Conditions: read-out: IC50 CPN
Source text: Supplement srep32958-s1.docx, table 1: Table S1: Activities of Anabaenopeptins against a panel of proteases/carboxypeptidases. | column: CPN
In the case of CC[C@H](C)[C@@H]1NC(=O)[C@H](NC(=O)N[C@@H](CCCNC(=N)N)C(=O)O)CCCCNC(=O)[C@H](Cc2ccccc2)NC(=O)[C@H](C)N(C)C(=O)[C@H](CCc2ccc(O)cc2)NC1=O [Compound 3, Anabaenopeptin F] ({Arg-CO}-[dK]I[hTyr][NMeA]F; lactam 1-C), the IC50 is reported as 2700 nM.
